Results as given in ChEMBL document CHEMBL1955732, “Synthesis and biological evaluation of 21-arylidenepregnenolone derivatives as neuroprotective agents” (Bioorg Med Chem Lett, 2012).
The source made the active and inactive calls. The calls are words filed in the database; no cut-off is given here.

What was measured:
PC-12 [1] = experiment: Neuroprotective activity against Abeta25-35-induced […] cells assessed as cell viability at 1 uM preincubated for 2 hrs prior Abeta25-35 challenge measured after 24 hrs by MTT assay; assay type: functional; conditions: Rattus norvegicus; for viability at 1 µM: read-out: Activity
PC-12 [2] = experiment: Neuroprotective activity against Abeta25-35-induced […] cells assessed as cell viability at 10 uM preincubated for 2 hrs prior Abeta25-35 challenge measured after 24 hrs by MTT assay; assay type: functional; conditions: Rattus norvegicus; for viability at 10 µM: read-out: Activity
PC-12 [3] = experiment: Cytotoxicity against […] cells at 10 uM after 24 hrs by MTT assay; assay type: cell-based; conditions: rat, pc-12, 24 h
PC-12 [4] = experiment: Cytotoxicity against […] cells at 1 uM after 24 hrs by MTT assay; assay type: cell-based; conditions: rat, pc-12, 24 h

SMILES	viability at 1 µM (PC-12 [1])	Activity (PC-12 [2])	Activity (PC-12 [3])	Activity (PC-12 [1])	viability at 10 µM (PC-12 [2])	Activity (PC-12 [4])
CCOc1ccc(/C=C/C(=O)[C@H]2CC[C@H]3[C@@H]4C[C@@H]5O[C@@]56C[C@@H](O)CC[C@]6(C)[C@H]4CC[C@]23C)cc1OC	61.1%	inactive	–	–	–	–
C[C@]12CC[C@H]3[C@@H](C[C@@H]4O[C@@]45C[C@@H](O)CC[C@]35C)[C@@H]1CC[C@@H]2C(=O)/C=C/c1ccc(Cl)cc1	–	–	Toxic	inactive	39.1%	–
C[C@]12CC[C@H]3[C@@H](C[C@@H]4O[C@@]45C[C@@H](O)CC[C@]35C)[C@@H]1CC[C@@H]2C(=O)/C=C/c1ccco1	–	–	–	inactive	82.7%	–
C[C@]12CC[C@H]3[C@@H](CC=C4C[C@@H](O)CC[C@@]43C)[C@@H]1CC[C@@H]2C(=O)/C=C/c1ccccc1	–	–	Toxic	inactive	29%	–
C[C@]12CC[C@H]3[C@@H](CC=C4C[C@@H](O)CC[C@@]43C)[C@@H]1CC[C@@H]2C(=O)/C=C/c1ccccc1C(F)(F)F	–	inactive	–	inactive	–	–
CC(C)c1ccc(/C=C/C(=O)[C@H]2CC[C@H]3[C@@H]4C[C@@H]5O[C@@]56C[C@@H](O)CC[C@]6(C)[C@H]4CC[C@]23C)cc1	–	–	Toxic	inactive	49.8%	–
CCOc1ccc(/C=C/C(=O)[C@H]2CC[C@H]3[C@@H]4CC=C5C[C@@H](O)CC[C@]5(C)[C@H]4CC[C@]23C)cc1OC	–	–	Toxic	inactive	26.7%	–
C[C@]12CC[C@H]3[C@@H](C[C@@H]4O[C@@]45C[C@@H](O)CC[C@]35C)[C@@H]1CC[C@@H]2C(=O)/C=C/c1ccc(F)cc1	–	–	Toxic	inactive	47.6%	–
C[C@]12CC[C@H]3[C@@H](C[C@@H]4O[C@@]45C[C@@H](O)CC[C@]35C)[C@@H]1CC[C@@H]2C(=O)/C=C/c1ccccc1F	–	–	Toxic	inactive	36.7%	–
C[C@]12CC[C@H]3[C@@H](CC=C4C[C@@H](O)CC[C@@]43C)[C@@H]1CC[C@@H]2C(=O)/C=C/c1ccco1	52.5%	–	Toxic	–	36.9%	Toxic
COc1ccc(/C=C/C(=O)[C@H]2CC[C@H]3[C@@H]4C[C@@H]5O[C@@]56C[C@@H](O)CC[C@]6(C)[C@H]4CC[C@]23C)cc1	–	–	Toxic	inactive	29.6%	–
C[C@]12CC[C@H]3[C@@H](C[C@@H]4O[C@@]45C[C@@H](O)CC[C@]35C)[C@@H]1CC[C@@H]2C(=O)/C=C/c1ccccc1C(F)(F)F	–	inactive	–	inactive	–	–
Cc1ccccc1/C=C/C(=O)[C@H]1CC[C@H]2[C@@H]3C[C@@H]4O[C@@]45C[C@@H](O)CC[C@]5(C)[C@H]3CC[C@]12C	–	–	Toxic	inactive	49.9%	–
C[C@]12CC[C@H]3[C@@H](C[C@@H]4O[C@@]45C[C@@H](O)CC[C@]35C)[C@@H]1CC[C@@H]2C(=O)/C=C/c1ccccc1Br	–	–	–	inactive	61.2%	–
C[C@]12CC[C@H]3[C@@H](C[C@@H]4O[C@@]45C[C@@H](O)CC[C@]35C)[C@@H]1CC[C@@H]2C(=O)/C=C/c1ccc(Cl)cc1Cl	–	–	Toxic	inactive	6%	–
CC(C)c1ccc(/C=C/C(=O)[C@H]2CC[C@H]3[C@@H]4CC=C5C[C@@H](O)CC[C@]5(C)[C@H]4CC[C@]23C)cc1	–	–	Toxic	inactive	34.9%	–

SMILES	viability at 1 µM (PC-12 [1])	Activity (PC-12 [2])	Activity (PC-12 [3])	Activity (PC-12 [1])	viability at 10 µM (PC-12 [2])	Activity (PC-12 [4])
C[C@]12CC[C@H]3[C@@H](CC=C4C[C@@H](O)CC[C@@]43C)[C@@H]1CC[C@@H]2C(=O)/C=C/c1ccc(F)cc1	–	–	Toxic	inactive	32.6%	–
C[C@]12CC[C@H]3[C@@H](C[C@@H]4O[C@@]45C[C@@H](O)CC[C@]35C)[C@@H]1CC[C@@H]2C(=O)/C=C/c1ccc(Br)cc1	50.1%	–	Toxic	–	32.5%	Toxic
O=C(O[C@@H]1Cc2c(O)cc(O)cc2O[C@@H]1c1cc(O)c(O)c(O)c1)c1cc(O)c(O)c(O)c1 [EPIGALOCATECHIN GALLATE]	–	–	–	–	65.4%	–
CC(=O)[C@H]1CC[C@H]2[C@@H]3CC=C4C[C@@H](O)CC[C@]4(C)[C@H]3CC[C@]12C	–	inactive	–	inactive	–	–
CCOc1ccccc1/C=C/C(=O)[C@H]1CC[C@H]2[C@@H]3CC=C4C[C@@H](O)CC[C@]4(C)[C@H]3CC[C@]12C	–	inactive	–	inactive	–	–
C[C@]12CC[C@H]3[C@@H](C[C@@H]4O[C@@]45C[C@@H](O)CC[C@]35C)[C@@H]1CC[C@@H]2C(=O)/C=C/c1ccccc1	64.8%	–	–	–	70.5%	–
C[C@]12CC[C@H]3[C@@H](CC=C4C[C@@H](O)CC[C@@]43C)[C@@H]1CC[C@@H]2C(=O)/C=C/c1ccccn1	–	inactive	–	inactive	–	–
CC(=O)[C@H]1CC[C@H]2[C@@H]3C[C@@H]4O[C@@]45C[C@@H](O)CC[C@]5(C)[C@H]3CC[C@]12C	–	inactive	–	inactive	–	–
C[C@]12CC[C@H]3[C@@H](CC=C4C[C@@H](O)CC[C@@]43C)[C@@H]1CC[C@@H]2C(=O)/C=C/c1ccc(Cl)cc1Cl	–	–	Toxic	inactive	34.5%	–
COc1cccc(/C=C/C(=O)[C@H]2CC[C@H]3[C@@H]4C[C@@H]5O[C@@]56C[C@@H](O)CC[C@]6(C)[C@H]4CC[C@]23C)c1	–	inactive	–	inactive	–	–
COc1ccc(/C=C/C(=O)[C@H]2CC[C@H]3[C@@H]4CC=C5C[C@@H](O)CC[C@]5(C)[C@H]4CC[C@]23C)cc1	–	–	Toxic	inactive	25.7%	–
C[C@]12CC[C@H]3[C@@H](C[C@@H]4O[C@@]45C[C@@H](O)CC[C@]35C)[C@@H]1CC[C@@H]2C(=O)/C=C/c1ccc(C#N)cc1	–	inactive	–	inactive	–	–
C[C@]12CC[C@H]3[C@@H](C[C@@H]4O[C@@]45C[C@@H](O)CC[C@]35C)[C@@H]1CC[C@@H]2C(=O)/C=C/c1ccccn1	–	–	Toxic	inactive	29.7%	–
C[C@]12CC[C@H]3[C@@H](C[C@@H]4O[C@@]45C[C@@H](O)CC[C@]35C)[C@@H]1CC[C@@H]2C(=O)/C=C/c1cccc([N+](=O)[O-])c1	–	–	Toxic	inactive	31.3%	–
C[C@]12CC[C@H]3[C@@H](CC=C4C[C@@H](O)CC[C@@]43C)[C@@H]1CC[C@@H]2C(=O)/C=C/c1ccccc1Br	–	inactive	–	inactive	–	–
